In publication PMC6576746, “Rational discovery of dual-indication multi-target PDE/Kinase inhibitor for precision anti-cancer therapy using structural systems pharmacology” (PLoS Computational Biology, 2019):

What was measured:
Experiment in all cases: cells
Design in all cases: species or system panel of human cancer cell lines; Eurofins OncoPanel proliferation; nuclei count by high-content fluorescence imaging, 10-point dose response
5637 = conditions: 72 h, cell count, 3 days
Procedure, shortened: (§1)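 Ten half-log concentrations from 100 μM (0.1% DMSO max) applied one day post-seeding, 3-day exposure at 37°C; untreated time-zero plate for GI50. Readout is nuclear cell count by automated fluorescence imaging, giving EC50, IC50, GI50 and 0–10 activity area.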

AN3 CA = conditions: Homo sapiens, AN3-CA, 72 h, cell count, 3 days
Procedure, shortened: as §1

CRO-AP2 = conditions: Homo sapiens, CRO-AP2, 72 h, cell count, 3 days
Procedure, shortened: as §1

DBTRG-05MG = conditions: Homo sapiens, DBTRG-05MG, 72 h, cell count, 3 days
Procedure, shortened: as §1

G-402 = conditions: Homo sapiens, G-402, 72 h, cell count, 3 days
Procedure, shortened: as §1

Hs 229.T = conditions: 72 h, cell count, 3 days
Procedure, shortened: as §1

Hs 895.T = conditions: 72 h, cell count, 3 days
Procedure, shortened: as §1

KHOS-240S = conditions: KHOS-240S, 72 h, cell count, 3 days
Procedure, shortened: as §1

NALM-6 = conditions: Homo sapiens, NALM-6, 72 h, cell count, 3 days
Procedure, shortened: as §1

NCI-H520 = conditions: Homo sapiens, NCI-H520, 72 h, cell count, 3 days
Procedure, shortened: as §1

OE19 = conditions: Homo sapiens, OE19, 72 h, cell count, 3 days
Procedure, shortened: as §1

PANC-1 = conditions: Homo sapiens, PANC-1, 72 h, cell count, 3 days
Procedure, shortened: as §1

RKOE6 = conditions: Homo sapiens, RKOE6, 72 h, cell count, 3 days
Procedure, shortened: as §1

SW872 = conditions: Homo sapiens, SW872, 72 h, cell count, 3 days
Procedure, shortened: as §1

[1] = 50% of maximum possible response

IC50 (NCI-H520; [1]): > 100 µM
GI50 (NCI-H520; corrected for time zero): > 100 µM
EC50 (NCI-H520; curve inflection point): > 100 µM
IC50 (PANC-1; [1]): 80.9 µM
GI50 (PANC-1; corrected for time zero): 47 µM
EC50 (PANC-1; curve inflection point): 80.9 µM
IC50 (SW872; [1]): 35.3 µM
GI50 (SW872; corrected for time zero): 28.9 µM
EC50 (SW872; curve inflection point): 35.3 µM
SMILES: C[C@@H]1CC(=O)NN=C1c1ccc(NN=C(C#N)C#N)cc1 [levosimendan]
IC50 5637; [1]: 64.7 µM
GI50 (5637; corrected for time zero): 53.5 µM
EC50 (5637; curve inflection point): 64.7 µM
IC50 (AN3 CA; [1]): 21.2 µM
GI50 (AN3 CA; corrected for time zero): 11.6 µM
EC50 (AN3 CA; curve inflection point): 21.2 µM
IC50 (CRO-AP2; [1]): 10.3 µM
GI50 (CRO-AP2; corrected for time zero): 8.29 µM
EC50 (CRO-AP2; curve inflection point): 9.97 µM
IC50 (DBTRG-05MG; [1]): 75.6 µM
GI50 (DBTRG-05MG; corrected for time zero): 41.4 µM
EC50 (DBTRG-05MG; curve inflection point): 75.6 µM
IC50 (G-402; [1]): 10.1 µM
GI50 (G-402; corrected for time zero): 4.83 µM
EC50 (G-402; curve inflection point): 6.76 µM
IC50 (Hs 229.T; [1]): 100 µM
GI50 (Hs 229.T; corrected for time zero): 60.3 µM
EC50 (Hs 229.T; curve inflection point): 100 µM
IC50 (Hs 895.T; [1]): > 100 µM
GI50 (Hs 895.T; corrected for time zero): 32.8 µM
EC50 (Hs 895.T; curve inflection point): > 100 µM
IC50 (KHOS-240S; [1]): 16.9 µM
GI50 (KHOS-240S; corrected for time zero): 13.5 µM
EC50 (KHOS-240S; curve inflection point): 16.9 µM
IC50 (NALM-6; [1]): 30.8 µM
GI50 (NALM-6; corrected for time zero): 23.4 µM
EC50 (NALM-6; curve inflection point): 30.8 µM
IC50 (OE19; [1]): > 100 µM
GI50 (OE19; corrected for time zero): 96.8 µM
EC50 (OE19; curve inflection point): > 100 µM
IC50 (RKOE6; [1]): 7.12 µM
GI50 (RKOE6; corrected for time zero): 6.28 µM
EC50 (RKOE6; curve inflection point): 6.96 µM
